Measurements from ChEMBL document CHEMBL3045167, “Synthesis and evaluation of antiinflammatory activity of substituted chalcone derivatives” (2010).
The source made the active and inactive calls. The calls are words filed in the database; no cut-off is given here.

Tests used:
Assay type in all cases: functional
Mus musculus [1] = experiment: Anti-inflammatory activity in Mus musculus Kunming (mouse) assessed as inhibition of xylene-induced ear edema at 200 mg/kg, po administered 2 hr prior to xylene challenge measured at 2 hr post xylene challenge relative to control
Mus musculus [2] = experiment: Anti-inflammatory activity in Mus musculus Kunming (mouse) assessed as inhibition of xylene-induced ear edema at 100 mg/kg, po administered 2 hr prior to xylene challenge measured at 2 hr post xylene challenge relative to control
Mus musculus [3] = experiment: Anti-inflammatory activity in Mus musculus Kunming (mouse) assessed as inhibition of xylene-induced ear edema at 50 mg/kg, po administered 2 hr prior to xylene challenge measured at 2 hr post xylene challenge relative to control
Mus musculus [4] = experiment: Anti-inflammatory activity in Mus musculus Kunming (mouse) assessed as inhibition of xylene-induced ear edema at 200 mg/kg, po administered 3 hr prior to xylene challenge measured at 3 hr post xylene challenge relative to control
Mus musculus [5] = experiment: Anti-inflammatory activity in Mus musculus Kunming (mouse) assessed as inhibition of xylene-induced ear edema at 200 mg/kg, po administered 24 hr prior to xylene challenge measured at 24 hr post xylene challenge relative to control
Mus musculus [6] = experiment: Anti-inflammatory activity in Mus musculus Kunming (mouse) assessed as inhibition of xylene-induced ear edema at 200 mg/kg, po administered 4 hr prior to xylene challenge measured at 4 hr post xylene challenge relative to control
Mus musculus [7] = experiment: Anti-inflammatory activity in Mus musculus Kunming (mouse) assessed as inhibition of xylene-induced ear edema at 200 mg/kg, po administered 1 hr prior to xylene challenge measured at 1 hr post xylene challenge relative to control
Mus musculus [8] = experiment: Anti-inflammatory activity in Mus musculus Kunming (mouse) assessed as inhibition of xylene-induced ear edema at 200 mg/kg, po administered 0.5 hr prior to xylene challenge measured at 0.5 hr post xylene challenge relative to control

Structure (SMILES): O=C(/C=C/c1ccc(Cl)cc1Cl)c1ccc(O)cc1O
- inhibition in vivo at 200 mg/kg (Mus musculus [1]): 26%

Structure (SMILES): O=C(/C=C/c1ccccc1[N+](=O)[O-])c1ccc(O)cc1O
- inhibition in vivo at 200 mg/kg (Mus musculus [1]): 20.2%

Structure (SMILES): O=C(/C=C/c1ccc(O)cc1)c1ccc(O)cc1O [ISOLIQUIRITIGENIN]
- inhibition in vivo at 200 mg/kg (Mus musculus [1]): 14.9%

Structure (SMILES): CN(C)c1ccc(/C=C/C(=O)c2ccc(O)cc2O)cc1
- inhibition in vivo at 100 mg/kg (Mus musculus [2]): 32.9%
- inhibition in vivo at 50 mg/kg (Mus musculus [3]): 15.1%
- inhibition in vivo at 200 mg/kg (Mus musculus [1]): 62.5%
- inhibition in vivo at 200 mg/kg (Mus musculus [4]): 27.5%
- inhibition in vivo at 200 mg/kg (Mus musculus [5]): 21.2%
- inhibition in vivo at 200 mg/kg (Mus musculus [6]): 25.3%
- inhibition in vivo at 200 mg/kg (Mus musculus [7]): 45.8%
- inhibition in vivo at 200 mg/kg (Mus musculus [8]): 41.7%

Structure (SMILES): O=C(/C=C/c1ccc(O)cc1)c1ccc(O)cc1 [4,4'-DIHYDROXYCHALCONE]
- inhibition in vivo at 200 mg/kg (Mus musculus [1]): 5.42%

Structure (SMILES): O=C(/C=C/c1cccc([N+](=O)[O-])c1)c1ccc(O)cc1O
- inhibition in vivo at 200 mg/kg (Mus musculus [1]): 30%

Structure (SMILES): COc1cc(/C=C/C(=O)c2ccc(O)cc2)ccc1O
- inhibition in vivo at 200 mg/kg (Mus musculus [1]): 7.83%

Structure (SMILES): O=C(/C=C/c1ccc(O)c(O)c1)c1ccc(O)cc1O [BUTEIN]
- inhibition in vivo at 200 mg/kg (Mus musculus [1]): 14.4%

Structure (SMILES): O=C(/C=C/c1ccc2c(c1)OCO2)c1ccc(O)cc1O
- inhibition in vivo at 200 mg/kg (Mus musculus [1]): 22%

Structure (SMILES): COc1ccc(/C=C/C(=O)c2ccc(O)cc2O)cc1
- inhibition in vivo at 200 mg/kg (Mus musculus [1]): 51.4%

Structure (SMILES): Cc1ccc(/C=C/C(=O)c2ccc(O)cc2O)cc1
- inhibition (Mus musculus [1]): inactive

Structure (SMILES): CN(C)c1ccc(/C=C/C(=O)c2ccc(O)cc2)cc1
- inhibition in vivo at 200 mg/kg (Mus musculus [1]): 17.3%

Structure (SMILES): CC(C)Cc1ccc(C(C)C(=O)O)cc1 (stereo unspecified) [IBUPROFEN]
- inhibition in vivo at 100 mg/kg (Mus musculus [2]): 33%
- inhibition in vivo at 50 mg/kg (Mus musculus [3]): 19.8%
- inhibition in vivo at 200 mg/kg (Mus musculus [1]): 53.5%
- inhibition in vivo at 200 mg/kg (Mus musculus [4]): 34.5%
- inhibition in vivo at 200 mg/kg (Mus musculus [5]): 20.6%
- inhibition in vivo at 200 mg/kg (Mus musculus [6]): 30.1%
- inhibition in vivo at 200 mg/kg (Mus musculus [7]): 41.6%
- inhibition in vivo at 200 mg/kg (Mus musculus [8]): 32.5%

Structure (SMILES): COc1cc(/C=C/C(=O)c2ccc(O)cc2O)ccc1O [HOMOBUTEIN]
- inhibition in vivo at 200 mg/kg (Mus musculus [1]): 25.2%

Structure (SMILES): O=C(/C=C/c1ccc(Cl)cc1)c1ccc(O)cc1O
- inhibition in vivo at 100 mg/kg (Mus musculus [2]): 49%
- inhibition in vivo at 50 mg/kg (Mus musculus [3]): 18.6%
- inhibition in vivo at 200 mg/kg (Mus musculus [1]): 68.2%
- inhibition in vivo at 200 mg/kg (Mus musculus [4]): 33.6%
- inhibition in vivo at 200 mg/kg (Mus musculus [5]): 21.5%
- inhibition in vivo at 200 mg/kg (Mus musculus [6]): 32.3%
- inhibition in vivo at 200 mg/kg (Mus musculus [7]): 32.5%
- inhibition in vivo at 200 mg/kg (Mus musculus [8]): 30.2%
